Laboratory results reported in patent US20250152585A1, “PHARMACEUTICAL COMPOUND” (Duke Street Bio Limited, priority 2022, published 2025).
Where two headings read alike, the source gives them in different places.

Key:
[1] = target: T1, N-terminally FLAG-tagged PARP2 (amino acids 1-583) (Homo sapiens, UniProt Q9UGN5); assay: PARP2 probe displacement HTRF assay; type: binding; details: binned Kd
T1 construct: N-terminally FLAG-tagged PARP2 (amino acids 1-583)
Method: Data analysis was performed identical as for PARP1.

[2] = target: T2, full length N-terminally FLAG-tagged PARP1 (Homo sapiens, UniProt P09874); assay: PARP1 probe displacement HTRF assay; details: for Selectivity: PARP1 over PARP2, ratio Kd (PARP2)/Kd (PARP1); for Kd: binned Kd
T2 sequence (P09874 whole entry): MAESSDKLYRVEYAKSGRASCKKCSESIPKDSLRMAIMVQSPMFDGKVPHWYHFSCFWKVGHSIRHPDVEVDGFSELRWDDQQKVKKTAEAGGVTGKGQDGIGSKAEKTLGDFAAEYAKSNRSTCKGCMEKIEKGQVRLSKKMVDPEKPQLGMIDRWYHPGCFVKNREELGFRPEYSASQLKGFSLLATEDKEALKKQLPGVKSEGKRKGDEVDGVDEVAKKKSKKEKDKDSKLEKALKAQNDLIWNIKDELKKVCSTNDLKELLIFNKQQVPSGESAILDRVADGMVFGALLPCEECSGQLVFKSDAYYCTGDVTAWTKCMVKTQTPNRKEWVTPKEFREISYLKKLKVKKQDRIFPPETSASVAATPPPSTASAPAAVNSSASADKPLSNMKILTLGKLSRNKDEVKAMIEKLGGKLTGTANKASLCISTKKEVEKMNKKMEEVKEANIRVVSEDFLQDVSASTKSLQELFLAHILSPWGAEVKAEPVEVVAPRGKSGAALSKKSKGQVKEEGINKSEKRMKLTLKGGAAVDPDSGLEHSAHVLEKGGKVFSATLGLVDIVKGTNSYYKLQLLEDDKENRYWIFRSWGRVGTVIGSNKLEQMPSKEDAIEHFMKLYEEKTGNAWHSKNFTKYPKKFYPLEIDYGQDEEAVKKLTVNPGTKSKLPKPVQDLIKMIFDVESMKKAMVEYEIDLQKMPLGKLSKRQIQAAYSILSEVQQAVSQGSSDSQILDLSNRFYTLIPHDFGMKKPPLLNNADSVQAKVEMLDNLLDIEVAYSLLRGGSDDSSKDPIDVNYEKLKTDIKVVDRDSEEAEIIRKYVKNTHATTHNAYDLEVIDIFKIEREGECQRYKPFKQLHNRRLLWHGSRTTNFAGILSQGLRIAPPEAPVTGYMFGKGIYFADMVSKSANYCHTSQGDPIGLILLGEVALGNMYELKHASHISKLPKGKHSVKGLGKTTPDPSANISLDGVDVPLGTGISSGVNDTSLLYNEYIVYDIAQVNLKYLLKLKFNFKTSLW

[3] = target: T2, full length N-terminally FLAG-tagged PARP1; assay: PARP1 biochemical DELFIA assay (auto-PARylation); parameters: recombinant full length human N-terminally FLAG-tagged PARP1
[4] = read-out: PARP1 HTRF, probe displacement HTRF
[5] = binned IC50, biochemical auto-PARylation assay
[6] = read-out: PARP1 HTRF, PARP1 probe displacement HTRF
[7] = binned IC50, PARP1 biochemical DELFIA assay

T1 sequence (Q9UGN5 whole entry, the tested form may be a part): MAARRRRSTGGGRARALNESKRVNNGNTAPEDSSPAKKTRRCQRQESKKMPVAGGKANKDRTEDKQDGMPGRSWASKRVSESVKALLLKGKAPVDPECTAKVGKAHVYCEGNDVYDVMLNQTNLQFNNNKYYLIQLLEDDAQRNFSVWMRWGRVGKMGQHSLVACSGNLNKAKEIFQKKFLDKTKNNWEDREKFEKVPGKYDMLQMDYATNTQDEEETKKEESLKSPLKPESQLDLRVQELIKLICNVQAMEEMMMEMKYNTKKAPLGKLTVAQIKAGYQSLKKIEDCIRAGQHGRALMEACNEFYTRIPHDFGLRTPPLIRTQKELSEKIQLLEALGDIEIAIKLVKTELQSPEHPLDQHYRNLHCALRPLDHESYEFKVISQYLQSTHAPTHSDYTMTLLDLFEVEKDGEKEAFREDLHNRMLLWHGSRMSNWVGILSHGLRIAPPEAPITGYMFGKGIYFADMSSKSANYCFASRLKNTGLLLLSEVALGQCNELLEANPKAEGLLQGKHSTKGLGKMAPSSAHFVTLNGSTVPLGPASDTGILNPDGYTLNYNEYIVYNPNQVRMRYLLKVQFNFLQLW

Row | Kd ([1]; probe displacement HTRF) [nM] | Kd [2, 4] [nM] | IC50 [3, 5] [nM] | Kd ([1]; PARP2 probe displacement HTRF) [nM] | Kd [2, 6] [nM] | IC50 [3, 7] [nM] | Kd ([2]; PARP1 HTRF, PARP1 probe displacement HTRF) [nM] | Kd ([2]; PARP1 HTRF, probe displacement HTRF) [nM] | Structure (SMILES) | Selectivity ([2]; probe displacement HTRF)
1 | 10 to 100 | < 10 | < 10 | – | – | – | – | – | O=C(NCC(F)F)c1ccc(N2CCC(N3CCC(c4cc5ccc(F)cc5c(=O)[nH]4)C3)CC2)c(F)n1 (single isomer, unassigned) [Compound 399b] | + (+ indicates a value of 10 to less than 50)
2 | – | – | – | > 10000 | 100 to 1000 | 100 to 1000 | – | – | O=c1[nH]c(C2CCCN(C3CCN(c4ccc(F)cc4F)CC3)C2)nc2ccccc12 (single isomer, unassigned) [Compound 113b] | + (+ indicates a value of 10 to less than 50)
3 | – | – | – | 1000 to 10000 | < 10 | < 10 | – | – | CNC(=O)c1ccc(N2CCC(N3CCCC(c4ccc(C5CC5)c(=O)[nH]4)C3)CC2)cn1 (single isomer, unassigned) [Compound 126a] | +++ (+++ indicate a value of at least 100)
4 | 1000 to 10000 | < 10 | < 10 | – | – | – | – | – | CNC(=O)c1ncc(N2CCC(N3CCC(c4cc5ccc(F)cc5c(=O)[nH]4)C3)CC2)c(C)n1 (single isomer, unassigned) [Compound 265a] | +++ (+++ indicate a value of at least 100)
5 | 10 to 100 | < 10 | < 10 | – | – | – | – | – | CNC(=O)c1cc(F)c(N2CCC(N3CCC(c4cc5ccc(F)cc5c(=O)[nH]4)C3)CC2)cn1 (racemic) [Compound 235rac] | + (+ indicates a value of 10 to less than 50)
6 | – | – | – | > 10000 | 100 to 1000 | 100 to 1000 | – | – | CNC(=O)c1ccc(N2CCC(N3CCCC(c4nc5cc(F)ccc5c(=O)[nH]4)C3)CC2)cn1 (single isomer, unassigned) [Compound 108a] | − (− indicates a value of less than 10)
7 | 100 to 1000 | – | < 10 | – | – | – | – | < 10 | O=C(NC1CC1)c1ncc(N2CCC(N3CC4(c5nc6ccc(F)cc6c(=O)[nH]5)CC3C4)CC2)cc1F [Compound 411] | +++ (+++ indicate a value of at least 100)
8 | – | – | – | 10 to 100 | < 10 | < 10 | – | – | CNC(=O)c1ccc(N2CCC(N3CCC(c4cc5c(F)cccc5c(=O)[nH]4)C3)CC2)cn1 (single isomer, unassigned) [Compound 172b] | +++ (+++ indicate a value of at least 100)
9 | – | – | – | 100 to 1000 | < 10 | < 10 | – | – | CNC(=O)c1ccc(N2CCC(N3CCC(c4nc5c(C)cn(C)c5c(=O)[nH]4)C3)CC2)cn1 (racemic) [Compound 163rac] | +++ (+++ indicate a value of at least 100)
10 | – | – | – | > 10000 | 10 to 100 | < 10 | – | – | CNC(=O)c1ccc(N2CCC(N3CCCC(Cc4nc5ccccc5c(=O)[nH]4)C3)CC2)cn1 (single isomer, unassigned) [Compound 57a] | +++ (+++ indicate a value of at least 100)
11 | – | – | – | 100 to 1000 | < 10 | < 10 | – | – | CNC(=O)c1ccc(N2CCC(N3CCC(c4nc5ccc(F)cc5c(=O)[nH]4)C3)CC2)cn1 (single isomer, unassigned) [Compound 64a] | + (+ indicates a value of 10 to less than 50)
12 | – | – | – | 1000 to 10000 | 100 to 1000 | 10 to 100 | – | – | CCNC(=O)c1ccc(N2CCC(N3CCCC(c4nc5ccccc5c(=O)[nH]4)C3)CC2)cn1 (single isomer, unassigned) [Compound 122b] | − (− indicates a value of less than 10)

The remaining lines, values behind:

Row | Structure (SMILES) | Kd ([1]; probe displacement HTRF) [nM] | Kd [2, 4] [nM] | IC50 [3, 5] [nM] | Kd ([1]; PARP2 probe displacement HTRF) [nM] | Kd [2, 6] [nM] | IC50 [3, 7] [nM] | Kd ([2]; PARP1 HTRF, PARP1 probe displacement HTRF) [nM] | Kd ([2]; PARP1 HTRF, probe displacement HTRF) [nM] | Selectivity ([2]; probe displacement HTRF)
13 | N#Cc1ccc(N2CCC(N3CCCC(c4nc5ccccc5c(=O)[nH]4)C3)CC2)nc1 (single isomer, unassigned) [Compound 74a] | – | – | – | 1000 to 10000 | 100 to 1000 | 100 to 1000 | – | – | + (+ indicates a value of 10 to less than 50)
14 | CNC(=O)c1ccc(N2CCC(N3CCC(c4cc5cccc(F)c5c(=O)[nH]4)C3)CC2)c(C#N)c1 (single isomer, unassigned) [Compound 345a] | 100 to 1000 | < 10 | < 10 | – | – | – | – | – | +++ (+++ indicate a value of at least 100)
15 | CNC(=O)c1ccc(N2CCC(N3CCC(c4cc5[nH]nc(C(F)(F)F)c5c(=O)[nH]4)C3)CC2)cn1 (single isomer, unassigned) [Compound 194b, N-methyl-5-(4-(3-(4-oxo-3-(trifluoromethyl)-4,5-dihydro-1H-pyrazolo[4,3-c]pyridin-6-yl)pyrrolidin-1-yl)piperidin-1-yl)picolinamide] | – | – | – | 10 to 100 | – | < 10 | < 10 | – | + (+ indicates a value of 10 to less than 50)
16 | N#Cc1ccc(N2CCC(N3CCC(c4cc5cccc(F)c5c(=O)[nH]4)C3)CC2)c(Cl)c1 (single isomer, unassigned) [Compound 378b] | 1000 to 10000 | < 10 | < 10 | – | – | – | – | – | +++ (+++ indicate a value of at least 100)
17 | CCc1cnc(C2CCCN(CC3CCN(c4ccc(C(=O)NC)nc4)CC3)C2)[nH]c1=O (racemic) [Compound 39rac] | – | – | – | > 10000 | 100 to 1000 | 100 to 1000 | – | – | + (+ indicates a value of 10 to less than 50)
18 | CNC(=O)c1ccc(N2CCC(N3CCC(c4ccc(OC)c(=O)[nH]4)C3)CC2)c(C(F)(F)F)n1 (single isomer, unassigned) [Compound 152a] | – | – | – | 1000 to 10000 | < 10 | < 10 | – | – | +++ (+++ indicate a value of at least 100)
19 | CNC(=O)c1ccc(N2CCC(N3CCC(c4cnc(C(F)(F)F)c(=O)[nH]4)C3)CC2)cn1 (single isomer, unassigned) [Compound 279b] | > 10000 | 1000 to 10000 | 1000 to 10000 | – | – | – | – | – | − (− indicates a value of less than 10)
20 | CCc1ccc(C2CCN(C3CCN(c4ccc(OC(F)F)nc4)CC3)C2)[nH]c1=O (single isomer, unassigned) [Compound 382a] | > 10000 | 100 to 1000 | 100 to 1000 | – | – | – | – | – | + (+ indicates a value of 10 to less than 50)
21 | CCCc1ccc(C2CCN(C3CCN(c4ccc(C(=O)NC)nc4F)CC3)C2)[nH]c1=O (single isomer, unassigned) [Compound 269a] | 1000 to 10000 | < 10 | < 10 | – | – | – | – | – | +++ (+++ indicate a value of at least 100)
22 | CNC(=O)c1ccc(N2CCC(N3CCCC(c4ncc(CC(F)(F)F)c(=O)[nH]4)C3)CC2)cn1 (single isomer, unassigned) [Compound 212b] | – | – | – | > 10000 | > 10000 | > 10000 | – | – | − (− indicates a value of less than 10)
23 | CNC(=O)c1ccc(N2CCC(N3CCC(c4nc5ccccc5c(=O)[nH]4)C3)CC2)c(C(F)(F)F)n1 (single isomer, unassigned) [Compound 139b] | – | – | – | 1000 to 10000 | 10 to 100 | 10 to 100 | – | – | +++ (+++ indicate a value of at least 100)
24 | CCc1ccc(C2CCN(C3CCN(c4cnc(C(=O)NC)nc4C)CC3)C2)[nH]c1=O (single isomer, unassigned) [Compound 246a] | > 10000 | 100 to 1000 | 100 to 1000 | – | – | – | – | – | + (+ indicates a value of 10 to less than 50)
25 | O=C(NCC(F)F)c1ccc(N2CCC(N3CCC(c4cc5cccc(F)c5c(=O)[nH]4)C3)CC2)c(F)n1 (single isomer, unassigned) [Compound 390a] | 100 to 1000 | < 10 | < 10 | – | – | – | – | – | +++ (+++ indicate a value of at least 100)
